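All cell lines were grown in 96-well plates and treated with compound for 48 hours. The concentration for 50% growth inhibition is given as GI50.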 The source made the active and inactive calls. Rule as the data show it: active = GI50 up to about 1.1 µM and inactive = higher.
Legend:
Assay in all cases: inhibition of tumour cell growth, NCI panel, 48 h
786-0 = tested on: 786-0
A498 = tested on: A498
A549 = tested on: A549
ACHN = tested on: ACHN
CAKI-1 = tested on: CAKI-1
CCRF-CEM = tested on: CCRF-CEM
COLO 205 = tested on: COLO 205
DLD-1 = tested on: DLD-1
DMS-114 = tested on: DMS-114
DMS-273 = tested on: DMS-273
EKVX = tested on: EKVX
HCC 2998 = tested on: HCC 2998
HCT-116 = tested on: HCT-116
HCT-15 = tested on: HCT-15
HL-60 = tested on: HL-60
HOP-18 = tested on: HOP-18
HOP-62 = tested on: HOP-62
HOP-92 = tested on: HOP-92
HT-29 = tested on: HT-29
IGROV-1 = tested on: IGROV-1
K562 = tested on: K562
KM-20L2 = tested on: KM-20L2
KM12 = tested on: KM12
LOX IMVI = tested on: LOX IMVI
LXFL 529 = tested on: LXFL 529
M14 = tested on: M14
M19-MEL = tested on: M19-MEL
MOLT-4 = tested on: MOLT-4
Malme-3M = tested on: Malme-3M
NCI-H226 = tested on: NCI-H226
NCI-H23 = tested on: NCI-H23
NCI-H460 = tested on: NCI-H460
NCI-H522 = tested on: NCI-H522
OVCAR-3 = tested on: OVCAR-3
OVCAR-4 = tested on: OVCAR-4
OVCAR-5 = tested on: OVCAR-5
OVCAR-8 = tested on: OVCAR-8
RPMI-8226 = tested on: RPMI-8226
RXF 393 = tested on: RXF 393
RXF 631 = tested on: RXF 631
SF-268 = tested on: SF-268
SF-295 = tested on: SF-295
SF-539 = tested on: SF-539
SK-MEL-28 = tested on: SK-MEL-28
SK-MEL-5 = tested on: SK-MEL-5
SK-OV-3 = tested on: SK-OV-3
SN12C = tested on: SN12C
SNB-19 = tested on: SNB-19
SNB-75 = tested on: SNB-75
SNB-78 = tested on: SNB-78
SW-620 = tested on: SW-620
TK-10 = tested on: TK-10
U-251 = tested on: U-251
UACC-257 = tested on: UACC-257
UACC-62 = tested on: UACC-62
UO-31 = tested on: UO-31
XF498 = tested on: XF498
SK-MEL-2 = tested on: SK-MEL-2
SR = tested on: SR

Cc1cccc(NC(=O)c2cc3cc(/N=N/c4ccccc4Cl)ccc3oc2=O)c1
GI50 (786-0): 26.9 µM (inactive)
GI50 (A498): > 100 µM (inactive)
GI50 (A549): 77.3 µM (inactive)
GI50 (ACHN): 40 µM (inactive)
GI50 (CAKI-1): 41.1 µM (inactive)
GI50 (CCRF-CEM): 14 µM (inactive)
GI50 (COLO 205): 57.7 µM (inactive)
GI50 (DLD-1): 26.4 µM (inactive)
GI50 (DMS-114): 22.7 µM (inactive)
GI50 (DMS-273): 26.9 µM (inactive)
GI50 (EKVX): 53.1 µM (inactive)
GI50 (HCC 2998): 26.1 µM (inactive)
GI50 (HCT-116): 23.7 µM (inactive)
GI50 (HCT-15): 27.4 µM
GI50 (HL-60): > 100 µM (inactive)
GI50 (HOP-18): 72.9 µM (inactive)
GI50 (HOP-62): 46.2 µM (inactive)
GI50 (HOP-92): 33.3 µM (inactive)
GI50 (HT-29): 38.2 µM (inactive)
GI50 (IGROV-1): 32.1 µM (inactive)
GI50 (K562): 61 µM (inactive)
GI50 (KM-20L2): > 100 µM (inactive)
GI50 (KM12): 15.4 µM (inactive)
GI50 (LOX IMVI): 10.4 µM (inactive)
GI50 (LXFL 529): 27.2 µM (inactive)
GI50 (M14): 26.8 µM (inactive)
GI50 (M19-MEL): 32.1 µM (inactive)
GI50 (MOLT-4): 22.8 µM (inactive)
GI50 (Malme-3M): 45.4 µM (inactive)
GI50 (NCI-H226): 13 µM (inactive)
GI50 (NCI-H23): 19.7 µM (inactive)
GI50 (NCI-H460): 27 µM (inactive)
GI50 (NCI-H522): 22.3 µM (inactive)
GI50 (OVCAR-3): 26.8 µM (inactive)
GI50 (OVCAR-4): 29.4 µM (inactive)
GI50 (OVCAR-5): 23.4 µM (inactive)
GI50 (OVCAR-8): 27 µM (inactive)
GI50 (RPMI-8226): 19.9 µM (inactive)
GI50 (RXF 393): 33.1 µM (inactive)
GI50 (RXF 631): 25.1 µM (inactive)
GI50 (SF-268): 23.3 µM (inactive)
GI50 (SF-295): 40 µM (inactive)
GI50 (SF-539): 30.3 µM (inactive)
GI50 (SK-MEL-28): 35.4 µM (inactive)
GI50 (SK-MEL-5): 19.8 µM (inactive)
GI50 (SK-OV-3): 88.7 µM (inactive)
GI50 (SN12C): 30.2 µM (inactive)
GI50 (SNB-19): 49 µM (inactive)
GI50 (SNB-75): 60.8 µM (inactive)
GI50 (SNB-78): 59.7 µM (inactive)
GI50 (SW-620): 54.1 µM (inactive)
GI50 (TK-10): 36 µM (inactive)
GI50 (U-251): 26.5 µM (inactive)
GI50 (UACC-257): 40.4 µM (inactive)
GI50 (UACC-62): 16.3 µM (inactive)
GI50 (UO-31): 13.3 µM (inactive)
GI50 (XF498): 24.2 µM (inactive)

CCOC(=O)/C=C(\C)c1ccc(Cl)cc1
GI50 (A498): > 100 µM (inactive)
GI50 (A549): > 100 µM (inactive)
GI50 (ACHN): > 100 µM (inactive)
GI50 (CAKI-1): > 100 µM (inactive)
GI50 (CCRF-CEM): > 100 µM (inactive)
GI50 (COLO 205): > 100 µM (inactive)
GI50 (DLD-1): > 100 µM (inactive)
GI50 (DMS-114): > 100 µM (inactive)
GI50 (DMS-273): > 100 µM (inactive)
GI50 (EKVX): > 100 µM (inactive)
GI50 (HCC 2998): > 100 µM (inactive)
GI50 (HCT-116): > 100 µM (inactive)
GI50 (HCT-15): > 100 µM
GI50 (HL-60): > 100 µM (inactive)
GI50 (HOP-18): > 100 µM (inactive)
GI50 (HOP-92): > 100 µM (inactive)
GI50 (HT-29): > 100 µM (inactive)
GI50 (IGROV-1): > 100 µM (inactive)
GI50 (K562): > 100 µM (inactive)
GI50 (KM-20L2): > 100 µM (inactive)
GI50 (KM12): > 100 µM (inactive)
GI50 (LOX IMVI): > 100 µM (inactive)
GI50 (LXFL 529): > 100 µM (inactive)
GI50 (M14): > 100 µM (inactive)
GI50 (MOLT-4): > 100 µM (inactive)
GI50 (Malme-3M): > 100 µM (inactive)
GI50 (NCI-H226): 54.8 µM (inactive)
GI50 (NCI-H23): > 100 µM (inactive)
GI50 (NCI-H460): > 100 µM (inactive)
GI50 (OVCAR-4): > 100 µM (inactive)
GI50 (OVCAR-5): > 100 µM (inactive)
GI50 (OVCAR-8): > 100 µM (inactive)
GI50 (RPMI-8226): > 100 µM (inactive)
GI50 (RXF 393): > 100 µM (inactive)
GI50 (RXF 631): > 100 µM (inactive)
GI50 (SF-268): > 100 µM (inactive)
GI50 (SF-295): > 100 µM (inactive)
GI50 (SF-539): > 100 µM (inactive)
GI50 (SK-MEL-28): > 100 µM (inactive)
GI50 (SK-MEL-2): > 100 µM (inactive)
GI50 (SN12C): > 100 µM (inactive)
GI50 (SNB-19): > 100 µM (inactive)
GI50 (SNB-75): > 100 µM (inactive)
GI50 (SNB-78): > 100 µM (inactive)
GI50 (SR): > 100 µM (inactive)
GI50 (SW-620): > 100 µM (inactive)
GI50 (TK-10): > 100 µM (inactive)
GI50 (U-251): > 100 µM (inactive)
GI50 (UACC-257): > 100 µM (inactive)
GI50 (UO-31): > 100 µM (inactive)
GI50 (XF498): > 100 µM (inactive)

Cn1c(=O)nc2n(-c3ccc(F)c(F)c3)c3ccccc3nc-2c1=O
GI50 (786-0): 32.7 µM (inactive)
GI50 (A498): 42.9 µM (inactive)
GI50 (A549): 15.9 µM (inactive)
GI50 (ACHN): 8.79 µM (inactive)
GI50 (CAKI-1): 38.4 µM (inactive)
GI50 (CCRF-CEM): 14.8 µM (inactive)
GI50 (COLO 205): 4.08 µM (inactive)
GI50 (DLD-1): 16 µM (inactive)
GI50 (DMS-114): 4.33 µM (inactive)
GI50 (DMS-273): 12.1 µM (inactive)
GI50 (EKVX): 4.82 µM (inactive)
GI50 (HCC 2998): 4.89 µM (inactive)
GI50 (HCT-116): 13.2 µM (inactive)
GI50 (HCT-15): 7.33 µM
GI50 (HL-60): 10.6 µM (inactive)
GI50 (HOP-18): 27.5 µM (inactive)
GI50 (HOP-62): 44.2 µM (inactive)
GI50 (HT-29): 4.03 µM (inactive)
GI50 (IGROV-1): 15.2 µM (inactive)
GI50 (K562): 15.5 µM (inactive)
GI50 (KM-20L2): 4.86 µM (inactive)
GI50 (KM12): 20.8 µM (inactive)
GI50 (LXFL 529): 21.3 µM (inactive)
GI50 (M14): 13.8 µM (inactive)
GI50 (M19-MEL): 1.76 µM (inactive)
GI50 (Malme-3M): 11.3 µM (inactive)
GI50 (NCI-H226): 30.3 µM (inactive)
GI50 (NCI-H23): 10.8 µM (inactive)
GI50 (NCI-H460): 7.11 µM (inactive)
GI50 (NCI-H522): 10.4 µM (inactive)
GI50 (OVCAR-3): 3.13 µM (inactive)
GI50 (OVCAR-4): 8.83 µM (inactive)
GI50 (OVCAR-5): 22.3 µM (inactive)
GI50 (OVCAR-8): 13.2 µM (inactive)
GI50 (RPMI-8226): 16.8 µM (inactive)
GI50 (RXF 393): 28.2 µM (inactive)
GI50 (RXF 631): 16.4 µM (inactive)
GI50 (SF-268): 18.5 µM (inactive)
GI50 (SF-295): 14.3 µM (inactive)
GI50 (SF-539): 27.1 µM (inactive)
GI50 (SK-MEL-2): 17 µM (inactive)
GI50 (SK-MEL-5): 8.18 µM (inactive)
GI50 (SK-OV-3): > 100 µM (inactive)
GI50 (SN12C): 17.6 µM (inactive)
GI50 (SNB-19): 15.7 µM (inactive)
GI50 (SNB-75): 23.3 µM (inactive)
GI50 (SNB-78): 19.3 µM (inactive)
GI50 (SW-620): 7.85 µM (inactive)
GI50 (TK-10): 32.3 µM (inactive)
GI50 (U-251): 14.7 µM (inactive)
GI50 (UACC-257): 6.68 µM (inactive)
GI50 (UACC-62): 2.4 µM (inactive)
GI50 (UO-31): 37.9 µM (inactive)
GI50 (XF498): 21.7 µM (inactive)

Reference: ChEMBL document CHEMBL1201862, “PubChem BioAssay data set” (2004)
